Data published in ChEMBL document CHEMBL4385643, “Design of a brain-penetrant CDK4/6 inhibitor for glioblastoma” (Bioorg Med Chem Lett, 2019).

Columns and labels:
[1] = molecular target: Serine/threonine-protein kinase 16 (Homo sapiens) (UniProt O75716); assay: Inhibition of tracer 236 binding to recombinant full length human His-tagged STK16 expressed in baculovirus expression system at 0.1 uM measured after 60 mins by Lanthascreen assay relative to control
[2] = molecular target: Serine/threonine-protein kinase TAO2 (Homo sapiens) (UniProt Q9UL54); assay: Inhibition of recombinant human GST-tagged TAO2 catalytic domain (1 to 314 residues) expressed in baculovirus expression system at 0.1 uM using serine/threonine-7 peptide as substrate incubated for 60 mins by Z'-LYTE assay relative to control
Serine/threonine-protein kinase TAO2 (Homo sapiens), sequence (Q9UL54 whole entry, the tested form may be a part): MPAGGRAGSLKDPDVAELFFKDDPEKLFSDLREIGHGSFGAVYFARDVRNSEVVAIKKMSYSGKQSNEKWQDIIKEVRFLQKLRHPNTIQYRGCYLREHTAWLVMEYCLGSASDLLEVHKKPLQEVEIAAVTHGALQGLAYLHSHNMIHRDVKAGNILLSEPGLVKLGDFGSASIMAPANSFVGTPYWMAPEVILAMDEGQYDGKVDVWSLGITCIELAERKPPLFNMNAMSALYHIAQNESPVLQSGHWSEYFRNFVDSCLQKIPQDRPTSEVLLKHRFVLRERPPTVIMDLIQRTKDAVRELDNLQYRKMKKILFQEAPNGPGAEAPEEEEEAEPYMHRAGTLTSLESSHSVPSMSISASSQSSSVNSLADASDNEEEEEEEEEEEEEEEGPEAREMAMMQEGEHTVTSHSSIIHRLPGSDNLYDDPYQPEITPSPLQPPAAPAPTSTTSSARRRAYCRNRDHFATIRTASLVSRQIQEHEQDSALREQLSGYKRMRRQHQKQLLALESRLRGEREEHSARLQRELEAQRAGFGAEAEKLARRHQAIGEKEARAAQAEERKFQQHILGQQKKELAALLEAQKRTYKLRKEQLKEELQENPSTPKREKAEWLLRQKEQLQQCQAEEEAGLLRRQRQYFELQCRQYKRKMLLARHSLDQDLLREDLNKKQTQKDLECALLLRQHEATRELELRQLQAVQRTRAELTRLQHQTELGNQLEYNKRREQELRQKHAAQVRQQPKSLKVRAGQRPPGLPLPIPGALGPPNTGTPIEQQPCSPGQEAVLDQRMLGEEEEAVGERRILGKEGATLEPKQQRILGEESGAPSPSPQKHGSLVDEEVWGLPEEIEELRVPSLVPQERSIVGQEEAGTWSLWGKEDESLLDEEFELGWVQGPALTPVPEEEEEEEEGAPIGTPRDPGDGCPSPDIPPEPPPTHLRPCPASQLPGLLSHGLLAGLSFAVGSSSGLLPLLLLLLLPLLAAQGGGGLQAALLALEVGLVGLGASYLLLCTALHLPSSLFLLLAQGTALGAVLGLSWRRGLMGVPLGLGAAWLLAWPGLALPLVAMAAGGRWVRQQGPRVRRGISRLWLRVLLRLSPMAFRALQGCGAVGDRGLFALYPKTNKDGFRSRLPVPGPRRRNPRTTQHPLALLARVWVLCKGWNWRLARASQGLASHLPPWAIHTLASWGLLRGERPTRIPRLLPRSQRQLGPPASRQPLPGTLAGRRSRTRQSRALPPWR

[3] = molecular target: Cyclin-C/Cyclin-dependent kinase 19 (Homo sapiens) (UniProt Q9BWU1+P24863); assay: Inhibition of tracer 236 binding to recombinant human GST/His-tagged CDK11/Cyclin C catalytic domain (CDK11: 1 to 502, Cyclin C: 1 to 283) expressed in insect cells expression system at 0.1 uM measured after 60 mins by Lanthascreen assay relative to control
[4] = molecular target: Serine/threonine-protein kinase 24 (Homo sapiens) (UniProt Q9Y6E0); assay: Inhibition of recombinant full length human GST-tagged MST3 expressed in baculovirus expression system at 0.1 uM using serine/threonine-7 peptide as substrate incubated for 60 mins by Z'-LYTE assay relative to control
[5] = molecular target: Tyrosine-protein kinase ITK/TSK (Homo sapiens) (UniProt Q08881); assay: Inhibition of recombinant full length human GST-tagged ITK expressed in baculovirus expression system at 0.1 uM using tyrosine-1 peptide as substrate incubated for 60 mins by Z'-LYTE assay relative to control
[6] = molecular target: Serine/threonine-protein kinase D1 (Homo sapiens) (UniProt Q15139); assay: Inhibition of recombinant full length human GST-tagged PKD1 expressed in baculovirus expression system at 0.1 uM using serine/threonine-17 peptide as substrate incubated for 60 mins by Z'-LYTE assay relative to control
Serine/threonine-protein kinase D1 (Homo sapiens), sequence (Q15139 whole entry): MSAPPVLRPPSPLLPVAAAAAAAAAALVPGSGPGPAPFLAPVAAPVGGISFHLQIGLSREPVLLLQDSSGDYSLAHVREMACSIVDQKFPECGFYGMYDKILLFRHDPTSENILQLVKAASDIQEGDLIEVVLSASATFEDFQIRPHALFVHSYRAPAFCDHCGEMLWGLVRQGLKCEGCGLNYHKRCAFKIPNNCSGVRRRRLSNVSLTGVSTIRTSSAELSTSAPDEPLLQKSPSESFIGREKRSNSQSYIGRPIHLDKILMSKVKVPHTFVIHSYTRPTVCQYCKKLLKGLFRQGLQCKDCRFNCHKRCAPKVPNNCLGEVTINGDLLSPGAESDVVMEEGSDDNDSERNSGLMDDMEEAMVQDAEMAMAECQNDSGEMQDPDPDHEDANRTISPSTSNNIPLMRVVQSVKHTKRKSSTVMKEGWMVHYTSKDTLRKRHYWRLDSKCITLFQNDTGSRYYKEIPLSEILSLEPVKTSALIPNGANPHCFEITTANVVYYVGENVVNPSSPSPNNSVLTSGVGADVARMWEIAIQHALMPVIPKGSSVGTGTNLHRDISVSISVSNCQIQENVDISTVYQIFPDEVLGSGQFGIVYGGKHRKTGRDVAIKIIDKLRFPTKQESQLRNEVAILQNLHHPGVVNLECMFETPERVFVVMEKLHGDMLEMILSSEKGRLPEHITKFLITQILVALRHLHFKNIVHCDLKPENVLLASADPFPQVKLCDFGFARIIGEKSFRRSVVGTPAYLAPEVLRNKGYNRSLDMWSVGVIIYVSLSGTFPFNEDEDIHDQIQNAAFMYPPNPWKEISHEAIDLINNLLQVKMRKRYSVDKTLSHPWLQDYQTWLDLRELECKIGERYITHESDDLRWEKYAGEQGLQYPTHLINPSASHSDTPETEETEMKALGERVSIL

[7] = molecular target: Tyrosine-protein kinase SYK (Homo sapiens) (UniProt P43405); assay: Inhibition of recombinant full length human GST-tagged SYK expressed in baculovirus expression system at 0.1 uM using tyrosine-2 peptide as substrate incubated for 60 mins by Z'-LYTE assay relative to control
[8] = molecular target: Serine/threonine-protein kinase 3 (Homo sapiens) (UniProt Q13188); assay: Inhibition of recombinant full length human GST-tagged MST2 expressed in baculovirus expression system at 0.1 uM using serine/threonine-7 peptide as substrate incubated for 60 mins by Z'-LYTE assay relative to control
[9] = molecular target: Vascular endothelial growth factor receptor 1 (Homo sapiens) (UniProt P17948); assay: Inhibition of recombinant human GST-tagged FLT1 catalytic domain (781 to 1338 residues) expressed in baculovirus expression system at 0.1 uM using tyrosine-4 peptide as substrate incubated for 60 mins by Z'-LYTE assay relative to control
[10] = molecular target: Tyrosine-protein kinase Srms (Homo sapiens) (UniProt Q9H3Y6); assay: Inhibition of recombinant full length human GST-tagged SRM expressed in baculovirus expression system at 0.1 uM using tyrosine-1 peptide as substrate incubated for 60 mins by Z'-LYTE assay relative to control
[11] = molecular target: Mitogen-activated protein kinase kinase kinase 8 (Homo sapiens) (UniProt P41279); assay: Inhibition of recombinant human GST-tagged TPL2 catalytic domain (30 to 397 residues) expressed in baculovirus expression system at 0.1 uM using serine/threonine-3 peptide as substrate incubated for 60 mins by Z'-LYTE assay relative to control
[12] = molecular target: 3-phosphoinositide-dependent protein kinase 1 (Homo sapiens) (UniProt O15530); assay: Inhibition of recombinant human His-tagged PDK1 expressed in baculovirus expression system at 0.1 uM using serine/threonine-7 peptide as substrate incubated for 60 mins by Z'-LYTE assay relative to control
[13] = molecular target: Calcium/calmodulin-dependent protein kinase type IV (Homo sapiens) (UniProt Q16566); assay: Inhibition of recombinant full length human full length GST-tagged CAMK4 expressed in Escherichia coli expression system at 0.1 uM using serine/threonine-13 peptide as substrate incubated for 60 mins by Z'-LYTE assay relative to control
Calcium/calmodulin-dependent protein kinase type IV (Homo sapiens), sequence (Q16566 whole entry): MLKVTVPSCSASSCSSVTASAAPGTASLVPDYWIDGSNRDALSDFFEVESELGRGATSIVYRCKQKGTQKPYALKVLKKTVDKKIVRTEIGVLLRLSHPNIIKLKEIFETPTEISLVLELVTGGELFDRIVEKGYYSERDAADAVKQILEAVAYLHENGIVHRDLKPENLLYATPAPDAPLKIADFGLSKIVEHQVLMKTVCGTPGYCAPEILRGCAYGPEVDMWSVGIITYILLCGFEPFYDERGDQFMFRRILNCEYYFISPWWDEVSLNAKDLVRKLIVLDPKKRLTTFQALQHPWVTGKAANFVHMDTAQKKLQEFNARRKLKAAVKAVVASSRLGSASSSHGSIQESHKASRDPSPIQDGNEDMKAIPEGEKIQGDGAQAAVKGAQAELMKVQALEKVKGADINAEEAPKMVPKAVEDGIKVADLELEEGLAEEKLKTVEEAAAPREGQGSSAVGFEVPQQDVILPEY

[14] = molecular target: Dual specificity protein kinase CLK3 (Homo sapiens) (UniProt P49761); assay: Inhibition of recombinant full length human GST-tagged CLK3 expressed in Baculovirus expression system at 0.1 uM using serine/threonine-18 peptide as substrate incubated for 60 mins by Z'-LYTE assay relative to control
[15] = molecular target: Cytoplasmic tyrosine-protein kinase BMX (Homo sapiens) (UniProt P51813); assay: Inhibition of recombinant full length human His-tagged BMX expressed in baculovirus expression system at 0.1 uM using tyrosine-1 peptide as substrate incubated for 60 mins by Z'-LYTE assay relative to control
[16] = molecular target: Tyrosine-protein kinase receptor TYRO3 (Homo sapiens) (UniProt Q06418); assay: Inhibition of recombinant human GST-tagged RSE catalytic domain (451 to 890 residues) expressed in baculovirus expression system at 0.1 uM using tyrosine-2 peptide as substrate incubated for 60 mins by Z'-LYTE assay relative to control
Tyrosine-protein kinase receptor TYRO3 (Homo sapiens), sequence (Q06418 whole entry, the tested form may be a part): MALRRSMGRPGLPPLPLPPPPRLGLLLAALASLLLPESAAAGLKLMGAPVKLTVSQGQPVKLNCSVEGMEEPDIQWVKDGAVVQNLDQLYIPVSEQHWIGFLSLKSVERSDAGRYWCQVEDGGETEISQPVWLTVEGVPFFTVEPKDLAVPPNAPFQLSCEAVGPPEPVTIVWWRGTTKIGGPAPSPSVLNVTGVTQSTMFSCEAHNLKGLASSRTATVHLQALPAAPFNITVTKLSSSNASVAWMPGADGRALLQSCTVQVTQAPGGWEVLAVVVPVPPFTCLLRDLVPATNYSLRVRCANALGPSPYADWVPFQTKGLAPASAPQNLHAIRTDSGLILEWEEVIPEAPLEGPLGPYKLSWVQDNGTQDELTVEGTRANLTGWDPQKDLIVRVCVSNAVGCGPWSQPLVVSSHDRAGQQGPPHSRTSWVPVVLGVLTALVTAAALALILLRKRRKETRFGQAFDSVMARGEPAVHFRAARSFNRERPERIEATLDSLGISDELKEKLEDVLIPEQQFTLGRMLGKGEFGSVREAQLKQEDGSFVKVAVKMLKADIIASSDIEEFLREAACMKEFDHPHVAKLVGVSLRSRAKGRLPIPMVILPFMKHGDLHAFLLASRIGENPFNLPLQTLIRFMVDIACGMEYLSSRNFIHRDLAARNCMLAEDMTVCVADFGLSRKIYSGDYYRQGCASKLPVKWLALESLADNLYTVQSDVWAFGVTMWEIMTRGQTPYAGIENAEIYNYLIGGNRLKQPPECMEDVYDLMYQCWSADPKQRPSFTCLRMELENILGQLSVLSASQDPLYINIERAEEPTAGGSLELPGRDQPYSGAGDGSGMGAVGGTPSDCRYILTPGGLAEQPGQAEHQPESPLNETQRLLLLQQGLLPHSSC

[17] = molecular target: Inhibitor of nuclear factor kappa-B kinase subunit epsilon (Homo sapiens) (UniProt Q14164); assay: Inhibition of recombinant full length human GST-tagged IKKepsilon expressed in baculovirus expression system at 0.1 uM using serine/threonine-11 peptide as substrate incubated for 60 mins by Z'-LYTE assay relative to control
Inhibitor of nuclear factor kappa-B kinase subunit epsilon (Homo sapiens), sequence (Q14164 whole entry): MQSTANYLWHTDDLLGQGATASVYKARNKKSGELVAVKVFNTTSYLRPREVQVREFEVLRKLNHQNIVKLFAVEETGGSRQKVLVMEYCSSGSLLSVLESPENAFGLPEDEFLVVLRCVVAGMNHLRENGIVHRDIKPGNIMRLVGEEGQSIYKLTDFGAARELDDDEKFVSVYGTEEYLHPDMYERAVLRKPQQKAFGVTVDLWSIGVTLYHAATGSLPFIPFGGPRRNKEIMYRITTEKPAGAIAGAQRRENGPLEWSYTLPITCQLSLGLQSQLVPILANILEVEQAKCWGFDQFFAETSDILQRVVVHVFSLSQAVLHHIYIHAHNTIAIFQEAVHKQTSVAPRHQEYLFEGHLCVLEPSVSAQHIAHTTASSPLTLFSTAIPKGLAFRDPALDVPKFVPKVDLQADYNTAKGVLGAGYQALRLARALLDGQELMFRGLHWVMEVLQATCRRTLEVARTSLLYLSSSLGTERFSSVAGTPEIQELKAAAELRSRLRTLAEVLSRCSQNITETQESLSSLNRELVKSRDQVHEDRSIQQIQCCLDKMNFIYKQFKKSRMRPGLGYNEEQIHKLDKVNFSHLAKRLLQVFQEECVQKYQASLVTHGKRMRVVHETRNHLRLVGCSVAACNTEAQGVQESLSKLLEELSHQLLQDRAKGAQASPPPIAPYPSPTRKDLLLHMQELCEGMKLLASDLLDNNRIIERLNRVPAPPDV

[18] = molecular target: Cyclin-dependent kinase 4/cyclin D1 (Homo sapiens) (UniProt P11802+P24385); assay: Inhibition of recombinant full length human GST-tagged CDK4/Cyclin D1 expressed in baculovirus expression system at 0.1 uM using Rb peptide as substrate incubated for 60 mins by Adapta assay relative to control
[19] = molecular target: Activin receptor type-1 (Homo sapiens) (UniProt Q04771); assay: Inhibition of tracer 236 binding to recombinant human GST-tagged ALK2 catalytic domain (145 to 509 residues) expressed in baculovirus at 0.1 uM measured after 60 mins by Lanthascreen assay relative to control
[20] = molecular target: MAP kinase-interacting serine/threonine-protein kinase 1 (Homo sapiens) (UniProt Q9BUB5); assay: Inhibition of recombinant full length human GST-tagged MKNK1 expressed in insect expression system at 0.1 uM using serine/threonine-7 peptide as substrate incubated for 60 mins by Z'-LYTE assay relative to control
[21] = molecular target: CDK7/Cyclin H/MNAT1 (Homo sapiens) (UniProt P51946+P50613+P51948); assay: Inhibition of recombinant full length human His-tagged CDK7/CyclinH/MAT1 expressed in baculovirus expression system at 0.1 uM using CDK7/9tide peptide as substrate incubated for 60 mins by Adapta assay relative to control
[22] = molecular target: Fibroblast growth factor receptor 4 (Homo sapiens) (UniProt P22455); assay: Inhibition of recombinant human His-tagged FGFR4 catalytic domain ([…]) expressed in baculovirus expression system at 0.1 uM using tyrosine-4 peptide as substrate incubated for 60 mins by Z'-LYTE assay relative to control
Fibroblast growth factor receptor 4 (Homo sapiens), sequence (P22455 22-802 limits assumed): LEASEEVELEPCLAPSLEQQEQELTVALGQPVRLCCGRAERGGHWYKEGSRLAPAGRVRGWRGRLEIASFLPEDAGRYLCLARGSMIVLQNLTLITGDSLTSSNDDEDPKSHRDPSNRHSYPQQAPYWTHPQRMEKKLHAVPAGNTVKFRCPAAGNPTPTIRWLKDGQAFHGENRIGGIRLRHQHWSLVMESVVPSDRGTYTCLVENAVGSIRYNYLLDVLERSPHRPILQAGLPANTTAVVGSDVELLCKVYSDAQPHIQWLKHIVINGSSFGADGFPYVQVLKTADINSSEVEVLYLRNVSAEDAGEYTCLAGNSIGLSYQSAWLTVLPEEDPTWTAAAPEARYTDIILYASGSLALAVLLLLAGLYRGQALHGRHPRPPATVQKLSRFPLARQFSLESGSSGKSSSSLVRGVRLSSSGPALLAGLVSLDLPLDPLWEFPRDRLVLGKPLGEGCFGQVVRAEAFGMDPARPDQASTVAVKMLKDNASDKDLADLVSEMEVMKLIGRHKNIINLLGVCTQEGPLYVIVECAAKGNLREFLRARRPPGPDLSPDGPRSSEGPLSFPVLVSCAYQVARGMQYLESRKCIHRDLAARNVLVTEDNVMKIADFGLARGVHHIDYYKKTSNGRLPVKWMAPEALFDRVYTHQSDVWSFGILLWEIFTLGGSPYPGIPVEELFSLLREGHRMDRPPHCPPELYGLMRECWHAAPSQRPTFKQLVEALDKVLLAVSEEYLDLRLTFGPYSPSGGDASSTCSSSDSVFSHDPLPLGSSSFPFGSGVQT

Row | SMILES | inhibition [1] [%] | inhibition [2] [%] | inhibition [3] [%] | inhibition [4] [%] | inhibition [5] [%] | inhibition [6] [%] | inhibition [7] [%] | inhibition [8] [%] | inhibition [9] [%] | inhibition [10] [%] | inhibition [11] [%] | inhibition [12] [%] | inhibition [13] [%] | inhibition [14] [%] | inhibition [15] [%] | inhibition [16] [%] | inhibition [17] [%] | inhibition [18] [%] | inhibition [19] [%] | inhibition [20] [%] | further results
1 | CCN1CC2(C1)CN(c1ccc(Nc3ncc(F)c(-c4cnn5c4[C@H](C)CCCC5)n3)nc1)C2 | 29.5 | 12.5 | 81 | 18.5 | 6 | 98.5 | -3 | 4 | 2.5 | 0 | 26 | 8.5 | 10 | 4 | -2 | 31 | 3.5 | 94 | 28 | 18 | inhibition [21]: 10.5%; inhibition [22]: 4%
2 | CCN1CCN(Cc2ccc(Nc3ncc(F)c(-c4cc(F)c5nc(C)n(C(C)C)c5c4)n3)nc2)CC1 [ABEMACICLIB] | 91.5 | 56 | 19 | 17 | 0.5 | 62.5 | 6 | 13 | 3 | 6 | 11 | 1 | 2.5 | 6.5 | 5.5 | 17 | 8 | 87 | 30.5 | 27 | inhibition [21]: 19.1%; inhibition [22]: 11%
